Data: US20100311714A1, “1H-IMIDAZO[4,5-c]QUINOLINONE COMPOUNDS” (priority 2009, published 2010)

Biological target: T1, PI3K gamma (Homo sapiens, UniProt P48736)
T1 construct: His tag (C); made in house; host or cells: construct from Roger Williams lab (pVL1393); baculovirus BV950; Tn5 (Trichoplusia ni) or TiniPro insect cells
Test: PI3K gamma kinase assay (Kinase-Glo luminescence)
Assay type: biochemical
Conditions: read-out: PI3Kgamma/IC50
Description: In a more preferred assay, the kinase reaction is performed in a final volume of 10 μL per well of a low volume non binding CORNING, 384 well black plate (Cat. No. #3676). The final concentrations of ATP and phosphatidyl inositol (PI) in the assay are 1 μM and 10 μg/mL respectively. The reaction is started by the addition of ATP.
The components of the assay are added per well as follows:
50 nL test compounds in 90% DMSO per well, in columns 1-20, 8 concentrations (⅓ and 1/3.33 serial dilution step) in single. • Low control: […] of 90% DMSO in half the wells of columns 23-24 (0.45% in final). • High control: 50 nL of reference compound (e.g. compound of Example 7 in WO 2006/122806) in the other half of columns 23-24 (2.5 μM in final). • Standard: 50 nL of reference compound as just mentioned diluted as the test compounds in columns 21-22 • 20 mL ‘buffer’ are prepared per assay: • 200 μL of 1M TRIS HCl pH7.5 (10 mM in final) • 60 μL of 1M MgCl2 (3 mM in final) • 500 μL of 2M NaCl (50 mM in final) • 100 μL of 10% CHAPS (0.05% in final) • 200 μL of 100 mM DTT (1 mM in final) • 18.94 mL of nanopure water • 10 mL ‘PI’ are prepared per assay: • 200 μL of 1 mg/ml L-alpha-Phosphatidylinositol (Liver Bovine, Avanti Polar Lipids Cat. No. 840042C MW=909.12) prepared in 3% OctylGlucoside (10 μg/ml in final) • 9.8 mL of ‘buffer’ • 10 mL ‘ATP’ are prepared per assay: • 6.7 μL of 3 mM stock of ATP giving a final concentration of 1 μM per well • 10 mL of ‘buffer’ • 2.5 mL of each PI3K construct are prepared per assay in ‘PI’ with the following final concentration: • 10 nM PI3K alfa EMV B1075 • 25 nM beta EMV BV949 • 10 nM delta EMV BV1060 • 150 nM gamma EMV BV950 • 5 μL of ‘PI/PI3K’ are added per well. • 5 μl ‘ATP’ are added per well to start the reaction. • The plates are then incubated at room temperature for 60 minutes (alfa, beta, delta) or 120 minutes (gamma). • The reaction is terminated by the addition of 10 μL Kinase-Glo (Promega Cat. No. #6714). • The assay plates are read after 10 minutes in Synergy 2 reader (BioTek, Vermont USA) with an integration time of 100 milliseconds and sensitivity set to 191. • Output: The High control is around 60′000 counts and the Low control is 30′000 or lower • This luminescence assay gives a useful Z′ ratio between 0.4 and 0.7
PI3K gamma is purified in two chromatographic steps: immobilized metal affinity chromatography (IMAC) on a Ni Sepharose resin (GE Healthcare) and gel filtration (GFC) utilizing a Superdex 200 26/60 column (GE Healthcare). All buffers are chilled to 4° C. and lysis is performed chilled on ice. Column fractionation is performed rapidly at room temperature. Typically frozen insect cells are lysed in a hypertonic lysis buffer and applied to a prepared IMAC column. The resin is washed with 3-5 column volumes of lysis buffer, followed by 3-5 column volumes wash buffer containing 45 mM imidazole, and the target protein is then eluted with a buffer containing 250 mM imidazole. Fractions are analyzed by Coomassie stained SDS-PAGE gels, and fractions containing target protein are pooled and applied to a prepared GFC column. Fractions from the GFC column are analyzed by Coomassie stained SDS-PAGE gels, and fractions containing target protein are pooled. The final pool is dialyzed into a storage buffer containing 50% glycerol and stored at −20° C. The final pool is assayed for activity in the phosphoinostitol kinase assay.
IC50 is determined by a four parameter curve fitting routine that comes along with “excel fit”. A 4 Parameter logistic equation is used to calculate IC50 values (IDBS XLfit) of the percentage inhibition of each compound at 8 concentrations (usually 10, 3.0, 1.0, 0.3, 0.1, 0.030, 0.010 and 0.003 μM). Alternatively, IC50 values are calculated using idbsXLfit model 204, which is a 4 parameter logistic model.

T1 sequence (P48736 144-1102 limits assumed): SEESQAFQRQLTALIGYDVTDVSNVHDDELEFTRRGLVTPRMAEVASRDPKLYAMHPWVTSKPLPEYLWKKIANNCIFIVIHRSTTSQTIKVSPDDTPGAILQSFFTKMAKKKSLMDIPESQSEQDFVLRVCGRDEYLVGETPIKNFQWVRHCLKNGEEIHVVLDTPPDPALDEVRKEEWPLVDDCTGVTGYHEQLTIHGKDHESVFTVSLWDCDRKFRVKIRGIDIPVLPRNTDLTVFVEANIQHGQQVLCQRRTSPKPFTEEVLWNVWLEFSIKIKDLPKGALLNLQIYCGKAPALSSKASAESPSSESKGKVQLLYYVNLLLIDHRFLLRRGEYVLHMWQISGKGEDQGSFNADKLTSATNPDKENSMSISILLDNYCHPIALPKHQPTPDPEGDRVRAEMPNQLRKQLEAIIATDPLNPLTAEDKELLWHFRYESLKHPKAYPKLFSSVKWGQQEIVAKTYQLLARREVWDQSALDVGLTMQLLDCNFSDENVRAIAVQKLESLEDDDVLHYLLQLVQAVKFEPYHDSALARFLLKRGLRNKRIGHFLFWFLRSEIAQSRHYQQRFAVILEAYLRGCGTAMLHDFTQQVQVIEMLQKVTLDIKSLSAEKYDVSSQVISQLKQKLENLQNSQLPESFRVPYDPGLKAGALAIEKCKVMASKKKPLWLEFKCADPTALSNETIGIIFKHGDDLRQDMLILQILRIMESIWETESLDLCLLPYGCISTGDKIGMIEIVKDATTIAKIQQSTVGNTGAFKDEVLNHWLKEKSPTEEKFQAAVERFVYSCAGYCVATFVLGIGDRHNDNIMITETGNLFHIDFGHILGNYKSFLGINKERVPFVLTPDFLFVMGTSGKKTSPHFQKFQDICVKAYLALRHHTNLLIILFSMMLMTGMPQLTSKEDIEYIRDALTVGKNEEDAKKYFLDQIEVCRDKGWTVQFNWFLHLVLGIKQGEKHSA

| SMILES | IC50 [nM] |
| --- | --- |
| Cn1c(=O)n(-c2cccnc2F)c2c3cc(-c4cnc(N)c(C(F)(F)F)c4)ccc3ncc21 [Example 6.2, 8-(6-Amino-5-trifluoromethyl-pyridin-3-yl)-1-(2-fluoro-pyridin-3-yl)-3-methyl-1,3-dihydro-imidazo[4,5-c]quinolin-2-one] | 139 |
| Cc1ncccc1-n1c(=O)n(C)c2cnc3ccc(-c4ccc(CO)nc4)cc3c21 [Example 2.6, 8-(6-Hydroxymethyl-pyridin-3-yl)-3-methyl-1-(2-methyl-pyridin-3-yl)-1,3-dihydro-imidazo[4,5-c]quinolin-2-one] | 913 |
| COc1ccc(-c2ccc3ncc4c(c3c2)n(-c2cnccc2C)c(=O)n4C)cn1 [Example 4.3, 8-(6-Methoxy-pyridin-3-yl)-3-methyl-1-(4-methyl-pyridin-3-yl)-1,3-dihydro-imidazo[4,5-c]quinolin-2-one] | 439 |
| CCOc1ccc(-c2ccc3ncc4c(c3c2)n(-c2cccnc2F)c(=O)n4C)cn1 [Example 6.1, 8-(6-Ethoxy-pyridin-3-yl)-1-(2-fluoro-pyridin-3-yl)-3-methyl-1,3-dihydro-imidazo[4,5-c]quinolin-2-one] | 206 |
| Cc1cccnc1-n1c(=O)n(C)c2cnc3ccc(-c4ccc(N(C)C)nc4)cc3c21 [Example 3.11, 8-(6-Dimethylamino-pyridin-3-yl)-3-methyl-1-(3-methyl-pyridin-2-yl)-1,3-dihydro-imidazo[4,5-c]quinolin-2-one] | 846 |
| Cn1c(=O)n(-c2cccnc2)c2c3cc(-c4ccc(CO)nc4)ccc3ncc21 [Example 5.1, 8-(6-Hydroxymethyl-pyridin-3-yl)-3-methyl-1-pyridin-3-yl-1,3-dihydro-imidazo[4,5-c]quinolin-2-one] | 943 |
| Cc1cccnc1-n1c(=O)n(C)c2cnc3ccc(-c4cnc(N)c(C(F)(F)F)c4)cc3c21 [Example 3.12, 8-(6-Amino-5-trifluoromethyl-pyridin-3-yl)-3-methyl-1-(3-methyl-pyridin-2-yl)-1,3-dihydro-imidazo[4,5-c]quinolin-2-one] | 202 |
| Cc1cccnc1-n1c(=O)n(C)c2cnc3ccc(-c4ccc(C(N)=O)cc4)cc3c21 [Example 3.3, 4-[3-Methyl-1-(3-methyl-pyridin-2-yl)-2-oxo-2,3-dihydro-1H-imidazo[4,5-c]quinolin-8-yl]-benzamide] | 322 |
| Cc1ncccc1-n1c(=O)n(C)c2cnc3ccc(-c4ccc(N)nc4)cc3c21 [Example 2.7, 8-(6-Amino-pyridin-3-yl)-3-methyl-1-(2-methyl-pyridin-3-yl)-1,3-dihydro-imidazo[4,5-c]quinolin-2-one] | 388 |
| COc1ccc(-c2ccc3ncc4c(c3c2)n(-c2ncccc2C)c(=O)n4C)cc1OC [Example 3.10, 8-(3,4-Dimethoxy-phenyl)-3-methyl-1-(3-methyl-pyridin-2-yl)-1,3-dihydro-imidazo[4,5-c]quinolin-2-one] | 307 |

The remaining compounds from weak to strong by IC50, led by results:

| IC50 [nM] | SMILES |
| --- | --- |
| 546 | CCOc1ccc(-c2ccc3ncc4c(c3c2)n(-c2cnccc2C)c(=O)n4C)cn1 [Example 4.2, 8-(6-Ethoxy-pyridin-3-yl)-3-methyl-1-(4-methyl-pyridin-3-yl)-1,3-dihydro-imidazo[4,5-c]quinolin-2-one] |
| 522 | CCOc1ccc(-c2ccc3ncc4c(c3c2)n(-c2ncccc2C)c(=O)n4C)cn1 [Example 3.6, 8-(6-Ethoxy-pyridin-3-yl)-3-methyl-1-(3-methyl-pyridin-2-yl)-1,3-dihydro-imidazo[4,5-c]quinolin-2-one] |
| 434 | CNC(=O)c1ccc(-c2ccc3ncc4c(c3c2)n(-c2ncccc2C)c(=O)n4C)cc1 [Example 3.5, N-Methyl-4-[3-methyl-1-(3-methyl-pyridin-2-yl)-2-oxo-2,3-dihydro-1H-imidazo[4,5-c]quinolin-8-yl]-benzamide] |
| 386 | CNc1ncc(-c2ccc3ncc4c(c3c2)n(-c2ncccc2C)c(=O)n4C)cn1 [Example 3.4, 3-Methyl-8-(2-methylamino-pyrimidin-5-yl)-1-(3-methyl-pyridin-2-yl)-1,3-dihydro-imidazo[4,5-c]quinolin-2-one] |
| 362 | CN(C)c1ccc(-c2ccc3ncc4c(c3c2)n(-c2cccnc2)c(=O)n4C)cn1 [Example 5.3, 8-(6-Dimethylamino-pyridin-3-yl)-3-methyl-1-pyridin-3-yl-1,3-dihydro-imidazo[4,5-c]quinolin-2-one] |
| 242 | COc1ccc(-c2ccc3ncc4c(c3c2)n(-c2cccnc2C)c(=O)n4C)cn1 [Example 2.12, 8-(6-Methoxy-pyridin-3-yl)-3-methyl-1-(2-methyl-pyridin-3-yl)-1,3-dihydro-imidazo[4,5-c]quinolin-2-one] |
| 230 | Cc1ncccc1-n1c(=O)n(C)c2cnc3ccc(-c4ccc(C(N)=O)cc4)cc3c21 [Example 2.3, 4-[3-Methyl-1-(2-methyl-pyridin-3-yl)-2-oxo-2,3-dihydro-1H-imidazo[4,5-c]quinolin-8-yl]-benzamide] |
| 195 | CNc1ccc(-c2ccc3ncc4c(c3c2)n(-c2cccnc2C)c(=O)n4C)cn1 [Example 2.13, 3-Methyl-8-(6-methylamino-pyridin-3-yl)-1-(2-methyl-pyridin-3-yl)-1,3-dihydro-imidazo[4,5-c]quinolin-2-one] |
| 168 | COc1ncccc1-n1c(=O)n(C)c2cnc3ccc(-c4cnc5[nH]ccc5c4)cc3c21 [Example 1.2, 1-(2-Methoxy-pyridin-3-yl)-3-methyl-8-(1H-pyrrolo[2,3-b]pyridin-5-yl)-1,3-dihydro-imidazo[4,5-c]quinolin-2-one] |
| 126 | COc1ccc(-c2ccc3ncc4c(c3c2)n(-c2cccnc2C)c(=O)n4C)cc1OC [Example 2.9, 8-(3,4-Dimethoxy-phenyl)-3-methyl-1-(2-methyl-pyridin-3-yl)-1,3-dihydro-imidazo[4,5-c]quinolin-2-one] |
| 124 | Cc1ncccc1-n1c(=O)n(C)c2cnc3ccc(-c4cnc(N)c(C(F)(F)F)c4)cc3c21 [Example 2.11, 8-(6-Amino-5-trifluoromethyl-pyridin-3-yl)-3-methyl-1-(2-methyl-pyridin-3-yl)-1,3-dihydro-imidazo[4,5-c]quinolin-2-one] |
| 120 | COc1ncccc1-n1c(=O)n(C)c2cnc3ccc(-c4ccc(C(N)=O)cc4)cc3c21 [Example 1.6, 4-[1-(2-Methoxy-pyridin-3-yl)-3-methyl-2-oxo-2,3-dihydro-1H-imidazo[4,5-c]quinolin-8-yl]-benzamide] |
